Source: publication PMC5048153 (Scientific Reports, 2016)

What was measured:
[1] = target: T1, hERG K^+ channel (Homo sapiens, UniProt Q12809); assay: hERG K+ channel inhibition (QPatch); assay type: cell-based; settings: hERG-expressing CHO cells, Qpatch 16X assay
T1 construct: expressed in transfected cells
Procedure: In brief, A Chinese hamster ovary (CHO) cell line stably expressing hERG potassium channels were cultured into appropriate cell density. Then cells were automatically prepared for application to chips. Whole-cell recordings were performed using automated QPatch (Sophion) and the data were analyzed using Assay Software provided by Graphpad Prism 5.0.

[2] = test system: corticosterone injured PC12 cells; assay: Real-time PCR NGF mRNA level; assay type: cell-based, rat; settings: 200 µM corticosterone and 5 µM drug
[3] = test system: corticosterone injured PC12 cells; assay: Hoechst 33258 staining (apoptosis); assay type: cell-based, rat; settings: 200 µM corticosterone and 5 µM drug
Procedure: To detect apoptotic cells, drug treated cells were stained with the DNA dye Hoechst 33258. Cells with the indicated treatment were fixed with methanol for 10 min at 4 °C before incubation with Hoechst 33258 for 10 min at room temperature. After washes with PBS, the apoptotic cells were mounted onto slides and observed under the fluorescence microscope BX61 (Olympus, Japan). Images were captured using DP71 CCD digital camera (Olympus).

[4] = test system: H9C2 cells; assay: Cytotoxicity on H9C2 cells (MTT); assay type: cell-based; settings: Rattus norvegicus, 48 h
Procedure: Human normal hepatic L02 cells, human embryonic kidney cell line 293 cells (HEK293) and Rattus myoblast cell line H9C2 cells were respectively seeded in 96-well plates at a density of 4 × 10^3 cells per well and cultured in the 1640 or DMEM medium, with the supplement of 10% fetal bovine serum, penicillin (100 unit/ml), streptomycin (100 μg/ml) in a humidified incubator with 5% CO2 for 24 h. After adherence, L02, HEK293 and H9C2 cells were exposed to different compounds for another 48 h. The cytotoxicities of the compounds were evaluated by MTT method.

[5] = test system: rat hippocampus; assay: BDNF, VEGF and IGF-1 level in vivo (ELISA); settings: 21-day treatment, i.p. 40 mg/kg, vs vehicle-treated group
Procedure: The detailed procedures were performed according to the reported literatures.
SD rats were killed by decapitation and hippocampi were dissected out and stored at −80 °C until use. Tissue samples were homogenized at 4 °C in Promega lysis buffer for ELISA. Samples were then sonicated and lysates were cleared by centrifugation at 4 °C, 15 000 g. Protein concentrations were determined according to the Bradford assay using bovine serum albumin as standard. Quantifications of VEGF and IGF-1 proteins were measured with Quantikine M mouse VEGF and IGF-1enzyme immunoassay kits and BDNF protein with a mouse ELISA kit.

[6] = test system: corticosterone-injured PC12 cells; assay: Intracellular calcium ion concentration analysis (Fura-2 AM); assay type: cell-based, rat; settings: 200 µM corticosterone and 5 µM drug
Procedure: The detailed procedures were performed according to the reported literatures. In brief, calcium ion concentration was measured by Fura-2 AM (Thermo Scientific). PC12 cells were treated with compound 6a-1 for 48 hours. Then cells were detached with 0.25% trypsin and centrifuged at 1000 r/min for 5 minutes. The supernatant was removed and the cells were stained with Fura-2 AM according to the manufacturer’s instructions. Fluorescence intensity of labeled cells was photographed for 25 random sights each group using Thermo Scientific Array Scan Infinity.

[7] = test system: corticosterone injured PC12 cells; assay: Intracellular ROS level (DCF-DA); assay type: cell-based, rat; settings: 200 μM corticosterone and 5 μM drug; vehicle-treated PC12 cells = 100%
Procedure: In brief, PC12 cells were washed with D-Hanks after drug treatment. Then cells were incubated with 2′, 7′-dichloro-fluorescein diacetate (DCF-DA, 20 μM) for 30 min at 37 °C in darkness.

T1 sequence (Q12809 whole entry): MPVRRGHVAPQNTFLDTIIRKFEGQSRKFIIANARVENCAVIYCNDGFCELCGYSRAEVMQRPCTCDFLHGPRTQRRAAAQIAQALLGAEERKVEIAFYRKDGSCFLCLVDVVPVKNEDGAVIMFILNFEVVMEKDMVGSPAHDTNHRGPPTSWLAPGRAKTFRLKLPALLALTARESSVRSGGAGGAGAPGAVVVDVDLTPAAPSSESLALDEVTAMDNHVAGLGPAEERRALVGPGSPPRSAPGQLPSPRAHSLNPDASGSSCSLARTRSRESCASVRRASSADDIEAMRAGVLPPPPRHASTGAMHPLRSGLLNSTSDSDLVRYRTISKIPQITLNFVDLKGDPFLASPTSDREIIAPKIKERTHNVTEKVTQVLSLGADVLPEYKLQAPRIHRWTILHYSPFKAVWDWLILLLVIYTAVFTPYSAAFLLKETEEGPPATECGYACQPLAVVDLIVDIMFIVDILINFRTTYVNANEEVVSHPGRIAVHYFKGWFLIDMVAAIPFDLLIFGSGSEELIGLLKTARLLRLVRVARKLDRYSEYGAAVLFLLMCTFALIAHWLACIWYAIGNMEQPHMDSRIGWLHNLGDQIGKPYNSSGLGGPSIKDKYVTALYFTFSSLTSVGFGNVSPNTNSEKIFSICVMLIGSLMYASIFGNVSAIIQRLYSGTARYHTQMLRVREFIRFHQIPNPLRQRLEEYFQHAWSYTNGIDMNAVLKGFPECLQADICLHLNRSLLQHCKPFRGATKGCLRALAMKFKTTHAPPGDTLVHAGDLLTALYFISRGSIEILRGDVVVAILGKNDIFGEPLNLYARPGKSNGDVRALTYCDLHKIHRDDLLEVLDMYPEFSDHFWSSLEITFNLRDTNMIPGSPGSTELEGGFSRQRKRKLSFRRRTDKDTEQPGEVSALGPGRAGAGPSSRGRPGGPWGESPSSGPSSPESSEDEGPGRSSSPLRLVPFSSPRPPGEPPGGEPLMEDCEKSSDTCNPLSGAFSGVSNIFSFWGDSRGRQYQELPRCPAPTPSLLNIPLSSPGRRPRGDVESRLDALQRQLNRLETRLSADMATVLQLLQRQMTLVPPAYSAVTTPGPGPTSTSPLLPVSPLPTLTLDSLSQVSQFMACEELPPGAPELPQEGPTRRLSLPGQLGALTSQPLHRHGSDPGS

Compound	IC50 [1] [µM]	NGF mRNA level [2]	apoptosis of PC12 cells induced by corticosterone [3]	IC50 [4] [µM]	hippocampal IGF-1 level [5]	hippocampal VEGF level [5]	fluorescence intensity of free intracellular calcium ion [6]	ROS level [7] [%]
COc1ccc2c(c1)C(CCNC(C)=O)=NCC2.O=C(O)C(=O)O [6a-1, N-(2-(7-Methoxy-3,4-dihydroisoquinolin-1-yl)ethyl) acetamide oxalate]	> 40	does not change	effectively reversed apoptosis	455	neither compound 6a-1 nor Agomelatine exerted any influence	neither compound 6a-1 nor Agomelatine exerted any influence	much weaker fluorescence intensity than Fluoxetine and Agomelatine	140.3
COc1ccc2cccc(CCNC(C)=O)c2c1 [Agomelatine, reference compound]	–	–	–	375	neither compound 6a-1 nor Agomelatine exerted any influence	neither compound 6a-1 nor Agomelatine exerted any influence	weaker fluorescence intensity than corticosterone-injured PC12 cells	125.0
